From PubChem BioAssay (NCI)
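Following 48 hours of exposure in 96-well plates, responses at five concentrations were used to interpolate endpoints linearly. At the TGI there is no net growth.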

Assays:
Experiment in all cases: growth of human tumour cells (NCI), 48 h
[1] = test system: COLO 205 colon
[2] = test system: RXF 393 renal
[3] = test system: OVCAR-3 ovarian
[4] = test system: TK-10 renal
[5] = test system: M14 melanoma
[6] = test system: HS 578T breast
[7] = test system: HOP-92 NSCLC
[8] = test system: NCI-H226 lung
[9] = test system: 786-0 renal
[10] = test system: MALME-3M melanoma
[11] = test system: HOP-62 NSCLC
[12] = test system: NCI-H460 lung
[13] = test system: SK-MEL-28 melanoma
[14] = test system: A498 renal
[15] = test system: SK-MEL-5 melanoma
[16] = test system: HCT-15 colon
[17] = test system: SF-268 CNS
[18] = test system: MDA-N
[19] = test system: SNB-75 CNS
[20] = test system: OVCAR-4 ovarian
[21] = test system: SK-MEL-2 melanoma
[22] = test system: NCI/ADR-RES ovarian
[23] = test system: OVCAR-8 ovarian
[24] = test system: SW-620 colon
[25] = test system: HT29 colon
[26] = test system: EKVX NSCLC
[27] = test system: DU-145 prostate
[28] = test system: A549 NSCLC
[29] = test system: UACC-62 melanoma
[30] = test system: MDA-MB-435
[31] = test system: K-562 leukemia
[32] = test system: IGROV1 ovarian
[33] = test system: LOX IMVI melanoma
[34] = test system: OVCAR-5 ovarian
[35] = test system: SF-539 CNS
[36] = test system: HL-60(TB) leukemia
[37] = test system: ACHN renal
[38] = test system: HCC-2998 colon
[39] = test system: MOLT-4 leukemia
[40] = test system: NCI-H522 lung
[41] = test system: NCI-H23 lung
[42] = test system: HCT-116 colon
[43] = test system: KM12 colon
[44] = test system: MDA-MB-231 breast
[45] = test system: RPMI-8226 leukemia
[46] = test system: CAKI-1 renal
[47] = test system: UACC-257 melanoma
[48] = test system: SNB-19 CNS
[49] = test system: SN12C renal
[50] = test system: SR leukemia
[51] = test system: U251 CNS
[52] = test system: CCRF-CEM leukemia
[53] = test system: UO-31 renal
[54] = test system: SK-OV-3 ovarian
[55] = test system: PC-3 prostate
[56] = test system: SF-295 CNS
[57] = test system: MCF7 breast

With `O=c1[nH]n(Cc2ccccc2Cl)c2ccc([N+](=O)[O-])cc12` the TGI [1] was > 100 µM, the TGI [2] was 57.9 µM and the TGI [3] was > 100 µM. The TGI [4] was > 100 µM, the TGI [5] was > 100 µM and the TGI [6] was > 100 µM. For the same compound, the TGI [7] was 52 µM, the TGI [8] was > 100 µM and the TGI [9] was > 100 µM. The TGI [10] was > 100 µM, the TGI [11] was > 100 µM and the TGI [12] was > 100 µM. For the same compound, the TGI [13] was > 100 µM, the TGI [14] was 64.3 µM and the TGI [15] was 52.8 µM. The TGI [16] was > 100 µM, the TGI [17] was > 100 µM and the TGI [18] was > 100 µM. For the same compound, the TGI [19] was > 100 µM, the TGI [20] was > 100 µM and the TGI [21] was > 100 µM. For the same compound, the TGI [22] was > 100 µM, the TGI [23] was > 100 µM and the TGI [24] was > 100 µM. The TGI [25] was > 100 µM, the TGI [26] was > 100 µM and the TGI [27] was > 100 µM. The TGI [28] was > 100 µM, the TGI [29] was > 100 µM and the TGI [30] was > 100 µM. For the same compound, the TGI [31] was > 100 µM, the TGI [32] was > 100 µM and the TGI [33] was > 100 µM. For the same compound, the TGI [34] was > 100 µM, the TGI [35] was > 100 µM and the TGI [36] was > 100 µM. For the same compound, the TGI [37] was > 100 µM, the TGI [38] was > 100 µM and the TGI [39] was > 100 µM. The TGI [40] was > 100 µM, the TGI [41] was > 100 µM and the TGI [42] was > 100 µM. For the same compound, the TGI [43] was > 100 µM, the TGI [44] was > 100 µM and the TGI [45] was > 100 µM. The TGI [46] was > 100 µM, the TGI [47] was > 100 µM and the TGI [48] was > 100 µM. The TGI [49] was > 100 µM, the TGI [50] was > 100 µM and the TGI [51] was > 100 µM. The TGI [52] was > 100 µM and the TGI [53] was > 100 µM.
In the case of `CCOC(=O)C(Cl)(NC(=O)NC(Cl)(C(=O)OCC)C(F)(F)F)C(F)(F)F` (centres undefined), the TGI [1] is reported as > 100 µM, the TGI [2] is reported as > 100 µM and the TGI [6] is reported as > 100 µM. For the same compound, the TGI [9] was > 100 µM, the TGI [13] was > 100 µM and the TGI [14] was > 100 µM. The TGI [16] was > 100 µM, the TGI [17] was > 100 µM and the TGI [18] was > 100 µM. The TGI [19] was > 100 µM, the TGI [21] was > 100 µM and the TGI [22] was > 100 µM. The TGI [25] was > 100 µM, the TGI [54] was > 100 µM and the TGI [31] was > 100 µM. For the same compound, the TGI [33] was > 100 µM, the TGI [34] was > 100 µM and the TGI [35] was > 100 µM. For the same compound, the TGI [36] was > 100 µM, the TGI [55] was > 100 µM and the TGI [37] was > 100 µM. The TGI [38] was > 100 µM, the TGI [39] was > 100 µM and the TGI [41] was > 100 µM. The TGI [42] was > 100 µM, the TGI [45] was > 100 µM and the TGI [47] was > 100 µM. For the same compound, the TGI [48] was > 100 µM, the TGI [49] was > 100 µM and the TGI [50] was > 100 µM. For the same compound, the TGI [51] was > 100 µM, the TGI [52] was > 100 µM and the TGI [53] was > 100 µM.
`CCOC(=O)CCC(NC(=O)c1ccc(CNc2nc3ccccc3nc2C(=O)OCC)cc1)C(=O)OCC` (centres undefined) was tested, and the TGI [1] was > 100 µM, the TGI [3] was > 100 µM and the TGI [4] was > 100 µM. For the same compound, the TGI [5] was > 100 µM, the TGI [6] was > 100 µM and the TGI [7] was > 100 µM. For the same compound, the TGI [8] was > 100 µM, the TGI [9] was > 100 µM and the TGI [10] was > 100 µM. For the same compound, the TGI [11] was > 100 µM, the TGI [13] was > 100 µM and the TGI [14] was > 100 µM. For the same compound, the TGI [15] was > 100 µM, the TGI [16] was > 100 µM and the TGI [17] was > 100 µM. The TGI [18] was > 100 µM, the TGI [56] was > 100 µM and the TGI [57] was > 100 µM. For the same compound, the TGI [19] was > 100 µM, the TGI [21] was > 100 µM and the TGI [22] was > 100 µM. For the same compound, the TGI [23] was > 100 µM, the TGI [24] was > 100 µM and the TGI [25] was > 100 µM. The TGI [26] was > 100 µM, the TGI [54] was > 100 µM and the TGI [27] was > 100 µM. For the same compound, the TGI [28] was > 100 µM, the TGI [29] was > 100 µM and the TGI [30] was 50.3 µM. The TGI [31] was > 100 µM, the TGI [32] was > 100 µM and the TGI [33] was > 100 µM. The TGI [34] was > 100 µM, the TGI [55] was > 100 µM and the TGI [37] was > 100 µM. The TGI [39] was > 100 µM, the TGI [40] was > 100 µM and the TGI [41] was > 100 µM. For the same compound, the TGI [42] was > 100 µM, the TGI [43] was > 100 µM and the TGI [44] was > 100 µM. The TGI [45] was > 100 µM, the TGI [48] was > 100 µM and the TGI [49] was > 100 µM. For the same compound, the TGI [51] was > 100 µM, the TGI [52] was > 100 µM and the TGI [53] was > 100 µM.
